In ChEMBL document CHEMBL1123596, “5-fluoro- and 8-fluorotrimetoquinol: selective beta 2-adrenoceptor agonists” (J Med Chem, 1987):
Where a name gives a salt, the structure may show the parent alone.

Key:
[1] = Acid dissociation constant was determined; assay type: ADME
[2] = target: Beta-1 adrenergic receptor (Cavia porcellus) (UniProt B0FL73)
[3] = target: Beta-2 adrenergic receptor (Cavia porcellus) (UniProt Q8K4Z4); conditions: Trachea
[4] = target: Beta-1 adrenergic receptor (Cavia porcellus) (UniProt B0FL73); remark: listed apart in the source

Beta-1 adrenergic receptor (Cavia porcellus), sequence (B0FL73 1-467): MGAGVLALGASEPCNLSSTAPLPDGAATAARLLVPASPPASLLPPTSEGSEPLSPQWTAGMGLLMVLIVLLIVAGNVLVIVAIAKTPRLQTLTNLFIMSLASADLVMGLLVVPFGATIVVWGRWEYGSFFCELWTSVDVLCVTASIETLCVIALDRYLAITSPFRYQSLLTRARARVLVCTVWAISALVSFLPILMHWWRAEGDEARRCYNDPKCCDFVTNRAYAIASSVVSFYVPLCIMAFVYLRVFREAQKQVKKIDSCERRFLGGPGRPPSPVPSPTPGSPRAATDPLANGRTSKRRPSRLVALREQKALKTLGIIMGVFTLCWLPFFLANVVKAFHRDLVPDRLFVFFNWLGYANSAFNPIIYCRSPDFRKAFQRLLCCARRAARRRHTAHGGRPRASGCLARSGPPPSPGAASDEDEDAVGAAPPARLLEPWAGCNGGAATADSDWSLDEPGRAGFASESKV
Beta-2 adrenergic receptor (Cavia porcellus), sequence (Q8K4Z4 whole entry, looked up): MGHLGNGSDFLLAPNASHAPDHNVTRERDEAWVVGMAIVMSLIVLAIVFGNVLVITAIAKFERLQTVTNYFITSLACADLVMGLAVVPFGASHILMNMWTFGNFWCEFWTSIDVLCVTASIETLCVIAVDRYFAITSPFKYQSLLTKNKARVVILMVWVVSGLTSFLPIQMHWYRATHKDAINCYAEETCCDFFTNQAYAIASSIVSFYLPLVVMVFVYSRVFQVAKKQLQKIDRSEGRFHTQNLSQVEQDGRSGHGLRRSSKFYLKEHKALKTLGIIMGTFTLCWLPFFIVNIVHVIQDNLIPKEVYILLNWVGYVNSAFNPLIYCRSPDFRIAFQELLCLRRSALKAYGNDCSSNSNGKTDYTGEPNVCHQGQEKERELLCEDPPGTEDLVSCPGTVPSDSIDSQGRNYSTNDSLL

Row | SMILES | pKa [1] | IAR [2] | IAR [3] | pD2 [4]
1 | COc1cc(CC2NCCc3c2cc(O)c(O)c3F)cc(OC)c1OC (stereo not drawn) | 8.11 | 0.96 | 0.95 | –
2 | COc1cc(CC2NCCc3cc(O)c(O)c(F)c32)cc(OC)c1OC (stereo not drawn) | 7.86 | – | – | –
3 | COc1cc(CC2NCCc3cc(O)c(O)cc32)cc(OC)c1OC (stereo not drawn) [TRETOQUINOL HYDROCHLORIDE] | 8.77 | 1 | 0.95 | 7.52
